Measurements from the NIST ThermoML archive (doi:10.1016/j.fluid.2007.07.016).

Assay: xn = mol fraction of the nth substance listed
Details: 101 kPa, Liquid; for viscosity: Capillary tube (Ostwald / Ubbelohde) method; for speed of sound: Linear variable-path acoustic interferometer

Cc1cccc(C)c1 [1,3-dimethylbenzene] + C1CCOC1
Details | speed of sound, 288.15 K [m/s] | speed of sound, 298.15 K [m/s] | speed of sound, 308.15 K [m/s] | speed of sound, 318.15 K [m/s] | viscosity, 288.15 K [mPa·s] | viscosity, 298.15 K [mPa·s] | viscosity, 308.15 K [mPa·s] | viscosity, 318.15 K [mPa·s]
x2 = 0 | 1373.2 | 1326.6 | 1281 | 1243 | 0.6696 | 0.588 | 0.5229 | 0.4684
x2 = 0.0722 | 1370.9 | 1324 | 1278.1 | 1239.4 | 0.6615 | 0.5823 | 0.5193 | 0.4668
x2 = 0.1486 | 1368.1 | 1321 | 1274.8 | 1235.5 | 0.6528 | 0.5762 | 0.5151 | 0.4647
x2 = 0.2134 | 1365.6 | 1318.4 | 1272.1 | 1232.2 | 0.6449 | 0.5703 | 0.511 | 0.4621
x2 = 0.2804 | 1362.9 | 1315.6 | 1269.2 | 1228.7 | 0.6363 | 0.5638 | 0.5061 | 0.4587
x2 = 0.3536 | 1359.7 | 1312.5 | 1265.9 | 1224.9 | 0.6263 | 0.556 | 0.4999 | 0.4542
x2 = 0.4255 | 1356.4 | 1309.3 | 1262.6 | 1221.1 | 0.616 | 0.5477 | 0.4932 | 0.4489
x2 = 0.4864 | 1353.5 | 1306.4 | 1259.7 | 1217.8 | 0.6068 | 0.5401 | 0.4869 | 0.4438
x2 = 0.5476 | 1350.5 | 1303.4 | 1256.6 | 1214.4 | 0.5971 | 0.5321 | 0.48 | 0.4382
x2 = 0.6041 | 1347.5 | 1300.5 | 1253.7 | 1211.1 | 0.5879 | 0.5243 | 0.4732 | 0.4323
x2 = 0.6751 | 1343.6 | 1296.7 | 1249.9 | 1206.9 | 0.5757 | 0.5139 | 0.464 | 0.4241
x2 = 0.7396 | 1339.8 | 1293.1 | 1246.4 | 1203.1 | 0.5642 | 0.5038 | 0.455 | 0.4162
x2 = 0.8005 | 1336.1 | 1289.6 | 1243 | 1199.5 | 0.5529 | 0.4939 | 0.446 | 0.408
x2 = 0.8722 | 1331.6 | 1285.4 | 1238.9 | 1195.1 | 0.5392 | 0.4817 | 0.4347 | 0.3974
x2 = 0.9378 | 1327.3 | 1281.4 | 1235.2 | 1191.1 | 0.5261 | 0.4699 | 0.4237 | 0.387

Cc1ccc(C)cc1 [1,4-dimethylbenzene] + C1CCOC1
Details | speed of sound, 288.15 K [m/s] | speed of sound, 298.15 K [m/s] | speed of sound, 308.15 K [m/s] | speed of sound, 318.15 K [m/s] | viscosity, 288.15 K [mPa·s] | viscosity, 298.15 K [mPa·s] | viscosity, 308.15 K [mPa·s] | viscosity, 318.15 K [mPa·s]
x2 = 0 | 1357.5 | 1316.4 | 1268 | 1230.3 | 0.7084 | 0.611 | 0.5501 | 0.4912
x2 = 0.084 | 1356 | 1314.1 | 1265.7 | 1227.2 | 0.6971 | 0.6047 | 0.5453 | 0.4891
x2 = 0.1716 | 1354.2 | 1311.7 | 1263.2 | 1224 | 0.6842 | 0.5954 | 0.5385 | 0.4849
x2 = 0.2322 | 1353.1 | 1310.1 | 1261.6 | 1221.9 | 0.6755 | 0.5895 | 0.5339 | 0.4819
x2 = 0.2934 | 1351.7 | 1308.3 | 1259.9 | 1219.6 | 0.6656 | 0.5825 | 0.528 | 0.4777
x2 = 0.3548 | 1350.2 | 1306.5 | 1258.1 | 1217.3 | 0.6552 | 0.5748 | 0.5214 | 0.4727
x2 = 0.4284 | 1348.1 | 1304 | 1255.7 | 1214.5 | 0.642 | 0.5648 | 0.5127 | 0.4658
x2 = 0.4896 | 1346.2 | 1301.8 | 1253.7 | 1212 | 0.6304 | 0.5558 | 0.5047 | 0.4592
x2 = 0.5518 | 1344.1 | 1299.4 | 1251.5 | 1209.3 | 0.6181 | 0.5461 | 0.4959 | 0.4518
x2 = 0.6201 | 1341.5 | 1296.6 | 1248.8 | 1206.2 | 0.6039 | 0.5347 | 0.4854 | 0.4428
x2 = 0.6825 | 1338.9 | 1293.7 | 1246.2 | 1203.3 | 0.5904 | 0.5237 | 0.4751 | 0.4337
x2 = 0.7414 | 1336.3 | 1290.9 | 1243.6 | 1200.4 | 0.5767 | 0.5127 | 0.4647 | 0.4245
x2 = 0.8102 | 1333.1 | 1287.6 | 1240.6 | 1197 | 0.5609 | 0.4991 | 0.4518 | 0.4128
x2 = 0.8756 | 1329.8 | 1284.3 | 1237.5 | 1193.7 | 0.545 | 0.4855 | 0.4388 | 0.4009
x2 = 0.9409 | 1326.4 | 1280.8 | 1234.4 | 1190.4 | 0.5284 | 0.4713 | 0.425 | 0.3881

C1CCOC1 [tetrahydrofuran] + Cc1ccccc1
Details | speed of sound, 288.15 K [m/s] | speed of sound, 298.15 K [m/s] | speed of sound, 308.15 K [m/s] | speed of sound, 318.15 K [m/s] | viscosity, 288.15 K [mPa·s] | viscosity, 298.15 K [mPa·s] | viscosity, 308.15 K [mPa·s] | viscosity, 318.15 K [mPa·s]
x1 = 0.0718 | 1357.7 | 1309.4 | 1264.6 | 1219.3 | 0.6406 | 0.5513 | 0.5013 | 0.4399
x1 = 0.1498 | 1356.3 | 1307.9 | 1262.7 | 1217.3 | 0.635 | 0.5491 | 0.5003 | 0.4415
x1 = 0.2283 | 1354.6 | 1306.2 | 1260.7 | 1215.2 | 0.6285 | 0.5459 | 0.498 | 0.4421
x1 = 0.2902 | 1353.1 | 1304.8 | 1259.1 | 1213.5 | 0.6231 | 0.5431 | 0.4956 | 0.4418
x1 = 0.3452 | 1351.7 | 1303.4 | 1257.6 | 1212 | 0.6176 | 0.5398 | 0.4929 | 0.4408
x1 = 0.4005 | 1350.1 | 1302 | 1255.9 | 1210.4 | 0.6113 | 0.5357 | 0.4894 | 0.4388
x1 = 0.4694 | 1347.8 | 1299.9 | 1253.7 | 1208.2 | 0.6027 | 0.5298 | 0.484 | 0.4352
x1 = 0.5368 | 1345.4 | 1297.7 | 1251.4 | 1205.9 | 0.5934 | 0.523 | 0.4775 | 0.4307
x1 = 0.6067 | 1342.8 | 1295.2 | 1248.8 | 1203.4 | 0.5834 | 0.5155 | 0.4704 | 0.4253
x1 = 0.6704 | 1340.1 | 1292.8 | 1246.3 | 1200.9 | 0.5736 | 0.508 | 0.463 | 0.4196
x1 = 0.7378 | 1337 | 1289.9 | 1243.5 | 1198.3 | 0.5626 | 0.4993 | 0.4544 | 0.4125
x1 = 0.8018 | 1333.8 | 1287 | 1240.7 | 1195.7 | 0.5515 | 0.4903 | 0.4453 | 0.405
x1 = 0.8714 | 1330.2 | 1284 | 1237.6 | 1192.8 | 0.5387 | 0.4797 | 0.4346 | 0.3957
x1 = 0.9368 | 1326.6 | 1280.7 | 1234.5 | 1190 | 0.5259 | 0.469 | 0.4237 | 0.3861
x1 = 1 | 1323.1 | 1277.6 | 1231.5 | 1187.2 | 0.5129 | 0.458 | 0.4125 | 0.3762
